target: T1, α7 nAChR (rat α7/CHO cells) (Rattus norvegicus, UniProt Q05941); assay: Evaluation of modulators of α7 nAChRs using the IonFlux HT automated patch clamp system (potentiation of EC20 ACh-evoked currents); type: cell-based; details: percent potentiation of ACh (EC20, approx. 60 μM) response in α7/CHO cells; 6-point dose response 0.03-10 μM; whole cell patch clamp
T1 construct: expressed in transfected cells; host or cells: CHO cells (α7/CHO)
Procedure: Evaluation of Modulators of α7 nAChRs Using the IonFlux^HT Automated Patch Clamp System
Acetylcholine was freshly prepared for each plate run and used at an EC20 concentration (approximately 60 μM for rat α7/CHO) to induce α7 nAChR currents on the IonFlux^HT. To prepare the ACh solution for a single plate, 6 μl of the 100 mM ACh stock was diluted into 10 ml of 0.3% DMSO/external solution
Test compounds were prepared for a 6-point dose response from 0.03-10 μM. Working stocks were prepared from serial dilutions of 10 mM DMSO stock solutions to give a final DMSO concentration of 0.3%. 80 μl of the final concentration of each compound was added to the appropriate wells in an IonFlux^HT assay plate.
2×T175 flasks of α7/CHO cells (˜60-70% confluent) were washed twice with PBS and trypsinized (2 ml) for 3.5 minutes at 37° C./5% CO2. Cells were collected in F-12K complete media, counted and the number required for the assay was calculated, for example, 2×10^6 cells in a final volume of 670 μl of external solution were required to load one zone (one quarter) of an IonFlux^HT assay plate. The correct number of cells was pelleted by centrifuge, the supernatant was discarded and the cell pellet was resuspend in external solution at the required concentration so that cells were added in a volume of 80 μl per well to the IonFlux^HT assay plate.
Calculation of the Effect of Compounds on ACh Mediated Currents in α7 nAChRs:
The effect of test compounds on EC20 ACh-evoked currents was calculated by the formula: […]
The rinse protocol was the initial step in preparation of the IonFlux^HT plate. 80 μl of MilliQ water was added to every well (except Out wells) and the IonFlux^HT assay plate was run through the water rinse protocol on the machine. At the end of the run, the water was discarded from the wells. This action was repeated twice.
Briefly, to prepare the plate for the assay aliquots of cells, compounds and internal and external solutions were added to wells of the prepared IonFlux^HT plate (80 μl/well) (solutions made to manufacturer's specifications). Automated whole cell patch-clamp recordings were made using the standard IonFlux^HT single application protocol. Vacuum was held at 6 psi/hg throughout the experiment and membrane potential was held at −80 mV for 35 sec and then at −60 mV during data acquisition. Two ACh (EC20) pulses were applied at the beginning of the assay, 90 seconds apart, to provide an ACh baseline response then cells were perfused with modulators for 89 sec before ACh (EC20) was applied for 1 s. The calculation of percent potentiation of the acetylcholine response for each well was performed by the data analysis software supplied with the IonFlux^HT.
The following compounds were tested in accordance with the above-procedure for activity and the EC50 values determined are reported: […]

T1 sequence (Q05941 23-502): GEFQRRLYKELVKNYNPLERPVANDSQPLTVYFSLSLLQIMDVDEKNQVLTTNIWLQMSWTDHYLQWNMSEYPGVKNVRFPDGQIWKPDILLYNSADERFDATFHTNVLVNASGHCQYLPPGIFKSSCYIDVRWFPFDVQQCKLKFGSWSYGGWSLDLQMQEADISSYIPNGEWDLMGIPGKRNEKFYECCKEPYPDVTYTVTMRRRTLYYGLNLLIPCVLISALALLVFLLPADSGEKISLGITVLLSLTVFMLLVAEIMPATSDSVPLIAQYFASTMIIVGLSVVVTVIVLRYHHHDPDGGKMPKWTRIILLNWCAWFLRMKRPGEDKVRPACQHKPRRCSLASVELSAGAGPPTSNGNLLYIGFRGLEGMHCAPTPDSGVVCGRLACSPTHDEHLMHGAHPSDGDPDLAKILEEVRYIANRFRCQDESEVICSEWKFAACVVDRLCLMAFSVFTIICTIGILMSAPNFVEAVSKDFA

SMILES | EC50
COc1ccc(Cl)cc1OC[C@H]1[C@H](c2ccc(NS(C)(=O)=O)cc2)C1(C)C (single isomer, unassigned) [Exp. 5] | 193 nM
COc1ccc(OC[C@H]2[C@H](c3ccc(NS(C)(=O)=O)cc3)C2(C)C)cn1 (single isomer, unassigned) [Exp. 6] | 596 nM
Cc1cc(F)ccc1OC[C@H]1[C@H](c2ccc(NS(C)(=O)=O)cc2)C1(C)C (single isomer, unassigned) [Exp. 7] | 1050 nM
Cc1cc(F)ccc1OC[C@H]1[C@H](c2ccc(NS(N)(=O)=O)cc2)C1(C)C (single isomer, unassigned) [Exp. 8] | 517 nM
Cc1ccc(F)cc1OC[C@H]1[C@H](c2ccc(NS(N)(=O)=O)cc2)C1(C)C (single isomer, unassigned) [Exp. 9] | 1750 nM
CC1(C)[C@@H](COc2ccc(F)cc2C(F)(F)F)[C@@H]1c1ccc(S(N)(=O)=O)cc1 (single isomer, unassigned) [Exp. 10] | 429 nM
Cc1ccc(SC[C@H]2[C@H](c3ccc(S(N)(=O)=O)cc3)C2(C)C)cc1 (single isomer, unassigned) [Exp. 13] | 70 nM
Cc1ccc(SC[C@@H]2[C@@H](c3ccc(S(N)(=O)=O)cc3)C2(C)C)cc1 (single isomer, unassigned) [Exp. 15] | 75 nM
COc1ccc(OC[C@H]2[C@H](c3ccc(NS(N)(=O)=O)cc3)C2(C)C)cn1 (single isomer, unassigned) [Exp. 17] | 4360 nM
Cc1ccc(OC[C@H]2[C@H](c3ccc(NS(N)(=O)=O)cc3)C2(C)C)cn1 (single isomer, unassigned) [Exp. 18] | 2300 nM
Cc1ncccc1OC[C@H]1[C@H](c2ccc(NS(C)(=O)=O)cc2)C1(C)C (single isomer, unassigned) [Exp. 19] | 350 nM
Cc1ncccc1OC[C@H]1[C@H](c2ccc(NS(N)(=O)=O)cc2)C1(C)C (single isomer, unassigned) [Exp. 20] | 3300 nM
COc1ccc(OC[C@@H]2[C@@H](c3ccc(S(N)(=O)=O)cc3)C2(C)C)c(OC)n1 (single isomer, unassigned) [Exp. 21] | 3880 nM
CC1(C)[C@H](COc2cc(F)ccc2OC(F)F)[C@H]1c1ccc(S(N)(=O)=O)cc1 (single isomer, unassigned) [Exp. 22] | 743 nM
COc1cc(Cl)ccc1OC[C@H]1[C@H](c2ccc(NS(N)(=O)=O)cc2)C1(C)C (single isomer, unassigned) [Exp. 23] | 546 nM
COc1cc(F)ccc1OC[C@H]1[C@H](c2ccc(NS(N)(=O)=O)cc2)C1(C)C (single isomer, unassigned) [Exp. 24] | 906 nM
CC1(C)[C@@H](COc2cccnc2)[C@@H]1c1ccc(S(N)(=O)=O)cc1 (single isomer, unassigned) [Exp. 25] | 4160 nM
COc1ccc(OC[C@H]2[C@H](c3ccc(S(N)(=O)=O)cc3)C2(C)C)c(OC)n1 (single isomer, unassigned) [Exp. 26] | 606 nM
Cc1ccc(OC[C@@H]2[C@@H](c3ccc(S(N)(=O)=O)cc3)C2(C)C)cn1 (single isomer, unassigned) [Exp. 27] | 3970 nM
CC1(C)[C@H](COc2ccc(F)cc2C#N)[C@H]1c1ccc(S(N)(=O)=O)cc1 (single isomer, unassigned) [Exp. 28] | 3100 nM
Cc1cc(F)ccc1OC[C@H]1[C@H](c2ccc(S(N)(=O)=O)cc2)C1(C)C (single isomer, unassigned) [Exp. 31] | 200 nM
CC1(C)[C@@H](COc2ccc(F)cc2C#N)[C@@H]1c1ccc(S(N)(=O)=O)cc1 (single isomer, unassigned) [Exp. 32] | 811 nM
Cc1ccc(OC[C@H]2[C@H](c3ccc(S(N)(=O)=O)cc3)C2(C)C)cn1 (single isomer, unassigned) [Exp. 33] | 546 nM
Cc1ncccc1OC[C@H]1[C@H](c2ccc(S(N)(=O)=O)cc2)C1(C)C (single isomer, unassigned) [Exp. 34] | 1620 nM
Cc1cc(F)ccc1OC[C@@H]1[C@@H](c2ccc(S(N)(=O)=O)cc2)C1(C)C (single isomer, unassigned) [Exp. 35] | 395 nM
CC1(C)[C@H](COc2ccccc2OC(F)F)[C@H]1c1ccc(S(N)(=O)=O)cc1 (single isomer, unassigned) [Exp. 42] | 625 nM
COc1ccccc1CC[C@@H]1[C@@H](c2ccc(S(N)(=O)=O)cc2)C1(C)C (single isomer, unassigned) [Exp. 48] | 612 nM
COc1ccc(Cl)cc1CC[C@@H]1[C@@H](c2ccc(S(N)(=O)=O)cc2)C12CCCC2 (single isomer, unassigned) [Exp. 49] | 64 nM
COc1ccc(Cl)cc1CC[C@H]1[C@H](c2ccc(S(N)(=O)=O)cc2)C12CCCC2 (single isomer, unassigned) [Exp. 50] | 190 nM
CC1(C)[C@H](COc2ccc(Cl)cn2)[C@H]1c1ccc(S(N)(=O)=O)cc1 (single isomer, unassigned) [Exp. 55] | 1470 nM

Other lines, results leading:

EC50 | SMILES
3640 nM | COc1ccc(Cl)cc1OC[C@H]1[C@H](c2ccc(S(N)(=O)=O)cc2)C1(C)C (single isomer, unassigned) [Exp. 11]
1350 nM | COc1ccc(Cl)cc1OC[C@@H]1[C@@H](c2ccc(S(N)(=O)=O)cc2)C1(C)C (single isomer, unassigned) [Exp. 12]
452 nM | COc1ccc(Cl)cc1SC[C@@H]1[C@@H](c2ccc(S(N)(=O)=O)cc2)C1(C)C (single isomer, unassigned) [Exp. 14]
125 nM | COc1ccc(Cl)cc1SC[C@H]1[C@H](c2ccc(S(N)(=O)=O)cc2)C1(C)C (single isomer, unassigned) [Exp. 16]
1240 nM | COc1cc(F)ccc1OC[C@@H]1[C@@H](c2ccc(S(N)(=O)=O)cc2)C1(C)C (single isomer, unassigned) [Exp. 29]
2520 nM | COc1cc(F)ccc1OC[C@H]1[C@H](c2ccc(S(N)(=O)=O)cc2)C1(C)C (single isomer, unassigned) [Exp. 30]
164 nM | COc1ccc(F)cc1OC[C@H]1[C@H](c2ccc(S(N)(=O)=O)cc2)C1(C)C (single isomer, unassigned) [Exp. 36]
6000 nM | N#Cc1cc(F)ccc1OC[C@@H]1C[C@H]1c1ccc(S(N)(=O)=O)cc1 (single isomer, unassigned) [Exp. 37]
1140 nM | NS(=O)(=O)c1ccc([C@@H]2C[C@H]2COc2ccc(F)cc2C(F)(F)F)cc1 (single isomer, unassigned) [Exp. 38]
5360 nM | COc1ccc(OC[C@@H]2C[C@H]2c2ccc(S(N)(=O)=O)cc2)c(OC)n1 (single isomer, unassigned) [Exp. 39]
1060 nM | COc1ccc(Cl)cc1OC[C@@H]1C[C@H]1c1ccc(S(N)(=O)=O)cc1 (single isomer, unassigned) [Exp. 40]
2590 nM | COc1cc(F)ccc1OC[C@@H]1C[C@H]1c1ccc(S(N)(=O)=O)cc1 (single isomer, unassigned) [Exp. 41]
1560 nM | COc1ccc(F)cc1OC[C@@H]1[C@@H](c2ccc(S(N)(=O)=O)cc2)C1(C)C (single isomer, unassigned) [Exp. 43]
2940 nM | COc1cc(F)ccc1OC[C@H]1C[C@@H]1c1ccc(S(N)(=O)=O)cc1 (single isomer, unassigned) [Exp. 44]
2510 nM | N#Cc1cc(F)ccc1OC[C@H]1C[C@@H]1c1ccc(S(N)(=O)=O)cc1 (single isomer, unassigned) [Exp. 45]
701 nM | NS(=O)(=O)c1ccc([C@H]2C[C@@H]2COc2ccc(F)cc2C(F)(F)F)cc1 (single isomer, unassigned) [Exp. 46]
3700 nM | COc1ccc(Cl)cc1OC[C@H]1C[C@@H]1c1ccc(S(N)(=O)=O)cc1 (single isomer, unassigned) [Exp. 47]
626 nM | COc1ccc(Cl)cc1CC[C@H]1C[C@@H]1c1ccc(S(N)(=O)=O)cc1 (single isomer, unassigned) [Exp. 51]
54 nM | COc1ccc(Cl)cc1CC[C@H]1[C@H](c2ccc(S(N)(=O)=O)cc2)C1(C)C (single isomer, unassigned) [Exp. 52]
2190 nM | COc1ccc(Cl)cc1OC[C@@H]1C[C@@H]1c1ccc(S(N)(=O)=O)cc1 (single isomer, unassigned) [Exp. 53]
124 nM | COc1ccc(Cl)cc1CC[C@@H]1[C@@H](c2ccc(S(N)(=O)=O)cc2)C1(C)C (single isomer, unassigned) [Exp. 54]

— patent US9994518B2, “Alpha-7 nicotinic acetylcholine receptor modulators and uses thereof” (MERCK SHARP & DOHME CORP., priority 2014, dated 2018)
